Entries after “also recorded” stand apart in the source; their conditions may differ.
Key:
rabbit NHE1 = assay: pH recovery in PS120 fibroblasts transfected with rabbit NHE1; assay type: cell-based; details: 5 μg/ml; acid-preloaded
Procedure: (§1) PS120 fibroblasts transfected with rabbit or human NHE1 were grown as described above.

human NHE1 = assay: pH recovery in PS120 fibroblasts transfected with human NHE1; assay type: cell-based; details: 5 μg/ml; acid-preloaded
Procedure: as §1

[1] = test system: bovine pulmonary endothelial cells; assay: Growth inhibition of endothelial cells in vitro; assay type: cell-based; details: 1 μg/ml; absorbance at 600 nm
[2] = test system: human epithelial cell line MCF 10A; assay: Growth inhibition of epithelial cells in vitro; assay type: cell-based; details: 10 μg/ml; absorbance at 600 nm
[3] = test system: human foreskin fibroblasts; assay: Growth inhibition of fibroblasts in vitro; assay type: cell-based; details: 10 μg/ml; absorbance at 600 nm
[4] = test system: human microvascular cells; assay: Inhibition of endothelial cell cord formation in vitro; assay type: cell-based; details: at cord formation-inhibiting concentrations
Excerpt: Endothelial cells have the capacity in vitro to form tubular aggregates resembling capillaries in various early stages of formation. This conversion occurs under relatively specific conditions, in which essential growth factors along with an effective substratum are provided. It has been shown that both the interaction of growth factors with the endothelial cell and its attachment to a substratum activate the NHE. The activation of this exchanger is believed to be required for subsequent morphologic transformation of the endothelial cell into a multicellular tubular structure.
To assess the effect of compounds on the cord-like structures formed by human microvascular cells when plated in the presence of VEFG (Vascular Endothelial Growth Factor) and basic fibroblast growth factor on a collagen matrix, a standard cord formation assay was used.

chorioallantoic membrane = assay: Chorioallantoic membrane (CAM) model; assay type: in vivo, chick; details: for Percentage positive, Assay 1 / Percentage positive, Assay 2: 3-day embryo, some vascular irritation noted
Excerpt: The growing capillaries within the chorioallantoic membrane model (CAM model) have been used as a system in which to evaluate the effect of agents on their potential to inhibit new vessel growth. Neovascularization occurs most aggressively over the first week of embryonic development. Thereafter capillary growth is characterized by principally "elongation" rather than "de novo" formation.
In the standard assay, agents are applied locally to a region of the embryo over which neovascularization will occur. Agents are assessed by their ability to inhibit this process, as evaluated by visual examination about 7 days after application. […] The assay utilized is described in detail in Auerbach et al., Pharm. Ther. 51, 1991, 1-11.

[5] = test system: chick embryo vitelline capillaries; assay: Chick embryo vitelline capillary regression assay; assay type: in vivo; design: key to vascular reactivity (capillary regression): +: Vascular reactivity; 0: No vascular reactivity; +/-: Equivocal reactivity; details: for vascular reactivity (capillary regression): 60 min
How it was run: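 Each compound was applied onto 3-day chick embryos in 0.1 ml 15% Ficol 400 in PBS. Regression of vitelline capillaries was scored visually after 60 minutes.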

B16 melanoma = B16 melanoma growth in C57B mice; assay type: in vivo, mouse
Procedure: The growth of B16 melanoma in C57B mice is dependent upon neovascularization.
Using the growth of B16 melanoma cells in C57B mice, a recognized model for the evaluation of inhibitors of angiogenesis on the growth of cancers, the effects of subcutaneous, intraperitoneal and oral administration of squalamine were evaluated.
In this model, there was observed little evidence of metastasis with or without treatment with chemotherapeutic agents.
Based on the idea that tumor growth involves both the clonal expansion of a malignant cell along with the development of a supporting vascular supply, a combination of compound 1436 with squalamine was tested to determine whether it would achieve a synergistic effect on solid tumor growth. This concept was evaluated in the B16 melanoma model.
Animals were implanted with B16 melanoma followed by treatment with compound 1436 or 1256 administered in a combined schedule or separately. […] Thus, a combination of these two compounds achieves a therapeutic benefit in tumors dependent on neovascularization that may prevent metastatic spread.

melanoma 1205Lu = assay: Human melanoma growth in immunocompromised RAG-1 mice; assay type: in vivo, human tumor in RAG-1 mice; details: 10, 20, 40 mg/kg/d (FIG. 5)
Excerpt: As apparent from FIG. 5, melanoma 1205Lu develops aggressively in RAG-1 mice after implantation.

[6] = test system: PHA-stimulated human lymphocytes; assay: Inhibition of mitogen (PHA)-stimulated growth of human T-cells; assay type: cell-based; details: in words; 10 μg/ml
Excerpt: Results are tabulated below.

[7] = Fasting blood glucose in mice; assay type: in vivo, mouse (male CD-1); details: 2 x 10 mg/kg i.v. (total 20 mg/kg), 30 min after 2d dose; in H2O (1437, 1256) or D5W (1436)
Procedure: To study the effect of steroid administrator or the NHE responsible for secretion of insulin, several of the aminosterols from shark liver were administered to fasting mice. Male CD-1 mice were assigned to one of four treatment groups. Whole blood glucose was tested using glucometer (Lifescan Glucometer II and One Touch test strips). Statistical analysis was via one-way analysis of variance (ANOVA) followed by subsequent Bonferonni's t-test.

[8] = test system: human coronary artery smooth muscle; assay: Proliferation of human coronary artery smooth muscle in vitro; assay type: cell-based; details: in words (1436: about 11 μg/ml)
Excerpt: Aminosterols of the invention may also have utility in inhibiting the growth factor mediated proliferation of smooth muscle within the artery. Following coronary angioplasty, reocclusion commonly occurs, secondary to reparative proliferation of the vascular smooth muscle within the wall of the surgically manipulated blood vessel. This process generally takes place over the course of 7-10 days. To evaluate whether an agent could prevent the growth factor mediated proliferation of smooth muscle within the artery, compound 1436 was evaluated in vitro for its effect on the proliferation of human coronary artery smooth muscle. Results for compound 1436 are shown in FIG. 13, and those for squalamine are shown in FIG. 14, with FIG. 15 being a composite logarithmic plot.

B16 = assay: Cytostatic activity against B16 in culture; assay type: cell-based, murine
Xenopus tadpole = details: stage 59-60, 10 μg/ml
[9] = test system: bacteria, fungi and protozoa; details: background; cited from earlier work
[10] = test system: human umbilical venous endothelial cells; assay: LPS-induced neutrophil adherence to endothelial cells; details: squalamine 10, 1.0 or 0.1 μg; three subjects
Procedure: To determine if squalamine inhibited this particular endothelial cell function, standard adhesion assays were performed as outlined in Gamble et al., J. Imm. […] In these experiments, approximately 2×10^5 human umbilical venous cells (passage 2-6) were plated per well. The cells were grown in serum-free media overnight. For induction, either TNF-α (40 ng/ml) was added to endothelial cells for 6 hours prior to adding neutrophils or LPS (100 ng/ml) was added for 4-6 hours. […] After activation of the endothelial cells, approximately 50×10^6 neutrophils were added per well. The plates were gently rocked for 30 minutes at room temperature, followed by removal of the media and washing in serum-free media three times and then photographing of each well. Experiments to test the effects of squalamine were performed by adding squalamine at 10 μg, 1.0 μg, or 0.1 μg at the time of adding LPS or TNF-α. A second repeat dose of squalamine was added at the time of adding neutrophils. A monoclonal Ab to ICAM-1 was a positive control.

rabbit NHE3 = rabbit NHE3 (Oryctolagus cuniculus, UniProt P26432); details: 5 μg/ml squalamine; cells not acid-preloaded
Chain of rabbit NHE3 (P26432 30-832): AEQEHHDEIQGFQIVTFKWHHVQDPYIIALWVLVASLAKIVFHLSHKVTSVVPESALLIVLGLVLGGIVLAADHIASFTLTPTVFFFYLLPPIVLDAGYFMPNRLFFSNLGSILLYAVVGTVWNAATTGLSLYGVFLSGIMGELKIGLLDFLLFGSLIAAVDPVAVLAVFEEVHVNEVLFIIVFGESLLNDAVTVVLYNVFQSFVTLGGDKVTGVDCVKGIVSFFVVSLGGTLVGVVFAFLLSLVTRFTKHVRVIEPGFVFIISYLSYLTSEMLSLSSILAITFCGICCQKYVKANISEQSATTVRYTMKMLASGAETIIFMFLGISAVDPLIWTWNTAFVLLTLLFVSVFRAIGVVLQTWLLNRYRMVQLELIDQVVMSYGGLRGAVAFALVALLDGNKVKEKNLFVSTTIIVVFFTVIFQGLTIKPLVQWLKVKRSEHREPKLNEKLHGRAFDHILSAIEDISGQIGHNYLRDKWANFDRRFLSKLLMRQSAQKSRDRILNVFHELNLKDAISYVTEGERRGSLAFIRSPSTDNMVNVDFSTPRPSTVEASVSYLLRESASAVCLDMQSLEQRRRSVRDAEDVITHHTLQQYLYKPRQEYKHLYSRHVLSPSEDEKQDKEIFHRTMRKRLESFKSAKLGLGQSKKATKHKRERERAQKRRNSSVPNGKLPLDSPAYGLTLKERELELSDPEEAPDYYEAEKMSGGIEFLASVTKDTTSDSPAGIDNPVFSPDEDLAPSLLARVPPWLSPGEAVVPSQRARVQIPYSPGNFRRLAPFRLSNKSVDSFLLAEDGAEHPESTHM
Procedure: For cells not acid-preloaded, the actual internal pH value was monitored as a function of time following addition of squalamine, with the results depicted in FIG. 1B.
PS120 fibroblasts transfected with rabbit NHE3 were grown and acid preloaded by exposure to 40 mM NH4 C1 as described above in conjunction with FIGS. 1A and 1B. Internal cellular pH changes expressed as the rate of pH recovery as a function of restored extracellular sodium ion concentration following exposure to 10 μg/ml of the compound were assayed with the fluorescent dye BCECF-AM as described above.

SMILES: CC(C)[C@@H](CC[C@@H](C)[C@H]1CC[C@H]2[C@@H]3[C@H](O)C[C@H]4C[C@@H](NCCCNCCCCN)CC[C@]4(C)[C@H]3CC[C@]12C)OS(=O)(=O)O [Squalamine, squalamine]
- inhibition of rabbit NHE1 (rabbit NHE1): no inhibitory activity; also recorded: lack of inhibition of rabbit sodium/proton exchanger isoform 1 (NHE1)
- inhibition of human NHE1 (human NHE1): no inhibitory activity; also recorded: lack of inhibition of human NHE1
- growth inhibition [1]: inhibited the growth
- growth inhibition [2]: no effect
- growth inhibition [3]: no effect
- effect on cell viability or proliferation [4]: does not appear to profoundly affect cell viability or proliferation
- Percentage positive, Assay 1 (chorioallantoic membrane; 20 μg applied): 52 Percentage
- Percentage positive, Assay 2 (chorioallantoic membrane; 20 μg applied): 58 Percentage
- Percentage positive, Assay 1 (chorioallantoic membrane; 40 μg applied): 50 Percentage
- Percentage positive, Assay 2 (chorioallantoic membrane; 40 μg applied): 13 Percentage
- Percentage positive (chorioallantoic membrane; 13-day embryo, 5.0 μg applied, positive/total): 0/26
- vascular reactivity (capillary regression) ([5]; 0.001 μg applied): 0
- vascular reactivity (capillary regression) ([5]; 0.01 μg applied): +
- vascular reactivity (capillary regression) ([5]; 0.1 μg applied): +
- vascular reactivity (capillary regression) ([5]; 1 μg applied): +
- vascular reactivity (capillary regression) ([5]; 10 μg applied): +
- effect on chick embryo vessels / blood ([5]; in words): disrupt vitelline capillaries in 3- to 5-day chick embryos
- effect on chick embryo vessels / blood ([5]; in words, listed as squalamine): especially active
- hemorrhage / hemolysis / heartbeat in chick embryo ([5]; in words, listed as squalamine): No hemorrhage was seen; also recorded: absence of hemolysis; also recorded: The embryonic heart continued to beat vigorously
- body weight and hematologic parameters (B16 melanoma; s.c., i.p. or oral squalamine): no significant depression
- effect on B16 tumor volume, single agent and combination (B16 melanoma; squalamine 5 mg/kg/day, compound 1436 10 mg/kg/every 3 days): no significant impact on tumor volume
- suppression of B16 melanoma tumor growth (B16 melanoma; squalamine subcutaneous, intraperitoneal, oral): a dose-dependent suppression of tumor volume; also recorded: suppression of the growth of murine melanoma
- suppression of human melanoma growth (melanoma 1205Lu): suppress the growth of melanoma 1205Lu in RAG-1 mice in a dose-dependent fashion; also recorded: clear suppression of tumor growth in a dose-dependent fashion
- suppression of human melanoma growth (melanoma 1205Lu; listed as squalamine): After cessation of treatment, tumor growth continued at a rate similar to untreated controls
- inhibition of blast transformation [6]: Some effect
- Fasting Blood Glucose Mean ± SEM [7]: 65 ± 7.3 mg/dL
- growth suppression / viability of smooth muscle cells [8]: suppress in vitro the growth of human coronary artery smooth muscle
- cytostatic activity against B16 (B16): minimal cytostatic activity against B16 in culture, except at very high concentrations
- time to death (Xenopus tadpole): ≤ 2 h
- pharmacological response in tadpole (Xenopus tadpole; in words, listed as Compound 1256 (Squalamine)): Vascular occlusion in fine capillaries of tail. No effect on vascular flow through hands or feet.
- antibiotic spectrum [9]: broad-spectrum antibiotic, killing bacteria, fungi and protozoa
- inhibition of neutrophil adherence [10]: no inhibition
- resting internal pH (rabbit NHE3): the resting pH of these cells was also inhibited

From patent publication US5840740A, “Aminosterol compounds and a method of treating infection using the aminosterol compounds” (priority 1995, dated 1998)
